Measured values from PubChem BioAssay AID602215 (Sanford-Burnham Center for Chemical Genomics, 2012).
Active and inactive are the calls of the source.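 The calls were made as follows: active = IC50 of 20 µM or lower; inactive = the rest.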

System: HL-1 cardiomyocytes, H2O2 injury, ATP luminescence, 2 h
Assay: H2O2-induced HL-1 cell death suppression – ATP luminescence, dose response (AID 602215);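 also: potency is for protection so actives raise ATP signal against peroxide damage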

In the case of `COc1ccc(-c2cc(-c3nnc(COC(=O)C4CC4)o3)c3ccccc3n2)cc1OC`, the IC50 is reported as > 79 µM (inactive).

`NC(=O)c1cc2ccccc2o/c1=N\NC(=O)c1ccc(F)cc1` showed an IC50 of 3.33 µM.

In the case of `COc1ccc(-n2c(/C=C/c3ccc(O)c(OC)c3)nc3ccccc3c2=O)cc1`, the IC50 is reported as 12.1 µM.

Molecule `O=C(CCCN1C(=O)c2cccc3cccc(c23)C1=O)N1CCN(c2ccccc2O)CC1` has an IC50 of 7.51 µM.

`COc1ccc(-c2cc3nc(-c4ccccc4)cc(N4CCN(C(C)=O)CC4)n3n2)cc1` gave an IC50 of 1.59 µM.

In the case of `O=C(c1cc(=O)[nH]c2ccccc12)N1CCN(S(=O)(=O)c2ccc(Cl)cc2)CC1`, the IC50 is reported as > 79 µM (inactive).

Work on `CC(=O)c1ccc(-c2cnc3c(NC=O)cc(-c4cccc(NS(C)(=O)=O)c4)cn23)cc1` yielded an IC50 of 12.9 µM.

With `COc1cc(/C=C(\C#N)c2nc3ccc(C)cc3[nH]2)c([N+](=O)[O-])cc1OC` the IC50 was > 79 µM (inactive).

With `O=C(Nc1cc(S(=O)(=O)N2CCOCC2)ccc1N1CCCCC1)c1cc(-c2ccccn2)nc2ccccc12` the IC50 was 3.6 µM.

For `COc1ccc(C(=O)Nc2cccc(/C(C)=N/NC(=O)c3ccc([N+](=O)[O-])c(C)c3)c2)cc1OC`, the IC50 was > 79 µM (inactive).

For `Cc1[nH]c2ccccc2c1/C=N/NC(=O)c1cc(-c2cccs2)[nH]n1`, the IC50 was > 79 µM (inactive).

For `Cc1nc(N2CCN(c3ccccn3)CC2)c2c(C)c(C(=O)Nc3ccc(F)cc3)sc2n1`, the IC50 was > 79 µM (inactive).

`CC(=O)c1ccc(-c2cnc3c(NC=O)cc(-c4cccc(C(=O)N(C)C)c4)cn23)cc1` showed an IC50 of 12 µM.

With `CCOc1ccc2nc(NC(=O)CN3CCC(n4nnc5cc(F)ccc54)CC3)sc2c1` the IC50 was > 79 µM (inactive).

In the case of `Nc1c(C(=O)N/N=C/c2cccnc2)oc2nc(-c3ccco3)cc(-c3ccco3)c12`, the IC50 is reported as > 79 µM (inactive).

`C[C@H](NC(=O)c1nc[nH]c1C(=O)NCC(=O)OCc1ccccc1)c1ccccc1` was tested, and the IC50 was > 79 µM (inactive).

For `COc1ccc(COc2cc(-c3cccc(OC)c3)nc3ccc(NC(=O)c4cccnc4)cc23)cc1`, the IC50 was 4.53 µM.

In the case of `O=C(NCC(=O)N(Cc1ccccc1)C(C(=O)NC1CCCCC1)c1ccco1)c1ccco1` (configuration not stated), the IC50 is reported as > 79 µM (inactive).

For `NC(=O)c1nsc(C(=O)N(c2ccccc2F)C(C(=O)NCc2ccccc2)c2ccc(O)cc2)c1N` (configuration not stated), the IC50 was 15.8 µM.

With `CC(=O)Nc1cc(-c2ccc(C(=O)NC3CC3)cc2)cn2c(-c3cccc(C(C)=O)c3)cnc12` the IC50 was > 79 µM (inactive).

`CC(=O)Nc1ccc(C(=O)N/N=C/c2ccccc2OC(=O)c2ccc(Cl)cc2)cc1` was tested, and the IC50 was > 79 µM (inactive).

For `c1ccc(-c2nc(-n3ccnc3)nc(-n3ccnc3)n2)cc1`, the IC50 was > 79 µM (inactive).

With `COc1cc(-c2cc(NC=O)c3ncc(-c4ccc(C(C)=O)cc4)n3c2)cc(OC)c1OC` the IC50 was 4.1 µM.

For `O=C(c1ccc(-c2nc3ccccc3s2)o1)N1CCN(c2ccccc2O)CC1`, the IC50 was > 79 µM (inactive).

With `Cc1cccc(NC(=O)c2nc[nH]c2C(=O)NCCCCNC(=O)c2[nH]cnc2C(=O)Nc2cccc(C)c2)c1` the IC50 was > 79 µM (inactive).

`COc1cc(-c2cc(NC(C)=O)c3ncc(-c4ccc(C(C)=O)cc4)n3c2)cc(OC)c1OC` was tested, and the IC50 was > 79 µM (inactive).

Molecule `CC(=O)c1cccc(-c2cnc3c(NC=O)cc(-c4ccccc4F)cn23)c1` has an IC50 of 3.28 µM.

For `Cc1cccc(NC(=O)c2oc3ccc(S(=O)(=O)N4CCOCC4)cc3c2C)c1C`, the IC50 was 4.13 µM.

Work on `CCOc1ccc(C(C(=O)NC2CCCC2)N(C(=O)c2snc(C(N)=O)c2N)c2cccc(O)c2)cc1` (configuration not stated) yielded an IC50 of 4.32 µM.

In the case of `CCOC(=O)c1c2c3c(cccc3n(C)c1=O)C(=O)c1ccccc1-2`, the IC50 is reported as > 79 µM (inactive).

In the case of `CCOC(=O)C1CCN(c2cc3c(cc2NC(=O)c2ccc(OC)c(OC)c2)n(C)c(=O)n3C)CC1`, the IC50 is reported as > 79 µM (inactive).

In the case of `COCCCN(Cc1ccco1)C(=O)Cn1ncc2c([nH]c3ccccc32)c1=O`, the IC50 is reported as > 79 µM (inactive).

In the case of `CCOc1ncccc1C(=O)Nc1cccc(-c2nc3cccnc3s2)c1`, the IC50 is reported as > 79 µM (inactive).

`COC(=O)c1ccc(N)c(N=CC2=C(O)CC(C)(C)CC2=O)c1` was tested, and the IC50 was 41.4 µM (inactive).

With `CC(C)c1ccccc1NC(=O)COC(=O)c1c2c(nc3ccccc13)CCN(Cc1ccccc1)C2` the IC50 was 41.4 µM (inactive).

In the case of `COc1ccc(-c2cc(NC=O)c3ncc(-c4ccc(C(C)=O)cc4)n3c2)cn1`, the IC50 is reported as > 79 µM (inactive).

`COc1cccc(Nc2nc(-c3sc(NC(=O)c4ccco4)nc3C)cs2)c1` was tested, and the IC50 was 26.4 µM (inactive).

For `CCOc1cc(-c2cc(-c3ccc(N)cc3)nc(N)c2C#N)ccc1O`, the IC50 was > 79 µM (inactive).

For `COc1cc(NC(=O)c2cc3nc(-c4ccccc4)cc(-c4ccccc4)n3n2)cc(OC)c1OC`, the IC50 was 8.71 µM.

For `COC(=O)c1cc2c(-c3ccccc3)cc3ccccn3c-2c1C(=O)OC`, the IC50 was > 79 µM (inactive).

For `O=C(CN(c1ccc2c(c1)OCCO2)S(=O)(=O)c1ccccc1)Nc1ccc2c(c1)OCO2`, the IC50 was > 79 µM (inactive).

With `COc1cc(OC)cc(C(=O)Nc2ccc(C(=O)Nc3ccccc3OC)cc2)c1` the IC50 was > 79 µM (inactive).

For `CC(C)(C)OC(=O)N1CCC(NC(=O)c2nc[nH]c2C(=O)NCC(=O)OCc2ccccc2)CC1`, the IC50 was > 79 µM (inactive).

`COc1ccc(Nc2nnc(SCc3cc(=O)n4ccsc4n3)s2)cc1` was tested, and the IC50 was > 79 µM (inactive).

With `O=C(COC(=O)c1ccccc1C(=O)OCC(=O)NCCc1c[nH]c2ccccc12)NCCc1c[nH]c2ccccc12` the IC50 was > 79 µM (inactive).

In the case of `O=C(N/N=C/c1ccccn1)c1cc(-c2cccc3ccccc23)n[nH]1`, the IC50 is reported as > 79 µM (inactive).

`CCn1nc(C(=O)Nc2nc(-c3ccccn3)cs2)c2ccccc2c1=O` was tested, and the IC50 was 33 µM (inactive).

With `Fc1ccc(-n2cc(-c3ccccc3)c3c(N4CCOCC4)ncnc32)cc1` the IC50 was > 79 µM (inactive).

With `C[C@@H]1CN([C@@H](C)CO)C(=O)c2cc(NC(=O)Nc3ccccc3)ccc2O[C@H]1CN(C)C(=O)Nc1cccc2ccccc12` the IC50 was > 79 µM (inactive).

`COc1ccccc1OP(=O)(Nc1cccnc1)Oc1ccccc1OC` was tested, and the IC50 was > 79 µM (inactive).

`COc1ccc(-c2nn(-c3ccccc3)cc2C(=O)Nc2nccs2)cc1` gave an IC50 of 13.7 µM.

With `Cc1[nH]c2ccccc2c1/C=N/NC(=O)c1cc(-c2ccccc2)n[nH]1` the IC50 was > 79 µM (inactive).

In the case of `CCOc1cc(/C=C/c2ccc3cccc([N+](=O)[O-])c3n2)ccc1OCC(=O)N(C)C`, the IC50 is reported as > 79 µM (inactive).

`O=S(=O)(c1ccccc1)N1CCN(c2nc(-c3cccnc3)nc3ccccc23)CC1` was tested, and the IC50 was > 79 µM (inactive).

For `O=C(CNC(=O)c1nc[nH]c1C(=O)NCC(=O)OCc1ccccc1)OCc1ccccc1`, the IC50 was > 79 µM (inactive).

In the case of `O=C(Nc1ccccc1)c1nc[nH]c1C(=O)NCCNC(=O)c1[nH]cnc1C(=O)Nc1ccccc1`, the IC50 is reported as > 79 µM (inactive).

Work on `COc1cc(-c2cc3nc(NCCc4ccc(S(N)(=O)=O)cc4)ccn3n2)cc(OC)c1OC` yielded an IC50 of 15.1 µM.

`CC(C)(C)NC(=O)COC(=O)c1c2c(nc3ccccc13)CCC2` was tested, and the IC50 was 49.1 µM (inactive).

`Cc1ccc(-n2cc(-c3ccccc3)c3c(N4CCOCC4)ncnc32)cc1` was tested, and the IC50 was > 79 µM (inactive).

For `COc1ccc(-c2cc(C(=O)N(C)Cc3ccc(OC)c(OC)c3OC)c3ccccc3n2)cc1OC`, the IC50 was 11.6 µM.

`COc1ccc(-c2cc(C(=O)Nc3ccccc3N3CCOCC3)c3ccccc3n2)cc1OC` showed an IC50 of 4.35 µM.

For `NC(=O)c1nsc(C(=O)N(Cc2ccco2)C(C(=O)NCc2ccccc2)c2ccc(O)cc2)c1N` (configuration not stated), the IC50 was 45.3 µM (inactive).

Molecule `COc1ccccc1NC(=O)c1cc(-c2cc(OC)c(OC)c(OC)c2)nc2ccccc12` has an IC50 of 13.4 µM.

In the case of `C=CCn1cnc2c(c1=O)c1nc3ccccc3nc1n2/N=C/c1cc(OC)c(OC)c(OC)c1`, the IC50 is reported as > 79 µM (inactive).

`O=CNc1cc(-c2ccc(C(=O)NC3CC3)cc2)cn2c(-c3ccccc3)cnc12` was tested, and the IC50 was > 79 µM (inactive).

With `Cc1ccc(C)c(NC(=O)C(Sc2nc3ccccc3c(=O)n2CC(C)C)c2ccccc2)c1` (configuration not stated) the IC50 was > 79 µM (inactive).

With `COCCN1Cc2cccc(C(=O)Nc3cccc(-c4nc5ccccc5[nH]4)c3)c2C1=O` the IC50 was > 79 µM (inactive).

`Cc1ccc(C=NNc2nc3c([nH]2)c(=O)n(C)c(=O)n3C)cc1` was tested, and the IC50 was > 79 µM (inactive).

`NC(=O)COc1ccc2oc(=O)cc(-c3cc4ccccc4o3)c2c1` gave an IC50 of 18.3 µM.

For `COc1cc(-c2cc(C(=O)NCc3ccco3)c3ccccc3n2)cc(OC)c1OC`, the IC50 was 23.5 µM (inactive).

In the case of `COc1ccc(/C=N/NC(=O)c2ccc(COc3cccc4cccnc34)cc2)cc1OC`, the IC50 is reported as 6.02 µM.

In the case of `COc1ccccc1N1CCN(C(=O)c2ccc3nc(-c4ccco4)c(-c4ccco4)nc3c2)CC1`, the IC50 is reported as > 79 µM (inactive).

With `CC1(c2ccccc2)NC(=O)N(CC(=O)Nc2cccc(/C=C/c3ccccn3)c2)C1=O` (configuration not stated) the IC50 was 14 µM.

`COc1cc(-c2cc3nc(NCCOc4ccccc4)ccn3n2)cc(OC)c1OC` was tested, and the IC50 was > 79 µM (inactive).

`CCN(CC(=O)Nc1ccc(OC)cc1)C(=O)c1cc(-c2cccs2)nn1-c1ccccc1` was tested, and the IC50 was > 79 µM (inactive).

`COc1cc2[nH]c(=O)n3nc(-c4ccccc4)nc3c2cc1OC` was tested, and the IC50 was > 79 µM (inactive).

With `CC1Nc2ncnc(N3CCN(c4ccccc4)CC3)c2N(Cc2ccc(Cl)cc2)C1=O` (configuration not stated) the IC50 was > 79 µM (inactive).
